In patent publication US11008346B2, “Beta-lactamase inhibitors” (priority 2014, dated 2021):
Read-outs that look alike come from different tables or passages of the source.

Tests used:
[1] = system: E. coli ESBL4 expressing CTX-M-15; experiment: broth microdilution MIC, E. coli CTX-M-15; assay type: cell-based; settings: Fixed CAZ (ceftazidime) 4 μg/mL
Procedure, shortened: (§1)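 Visual MIC readout after 16-20 hours at 37° C, reflecting compound concentration that restores growth inhibition by a beta-lactam held constant at 4 μg/mL. Compound was titrated 2-fold, 32 to 0.25 μg/mL final, in cation-adjusted Mueller Hinton broth.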

[2] = system: E. cloacae 144200 expressing Class C P99 AmpC; experiment: broth microdilution MIC, E. cloacae P99; assay type: cell-based; settings: Fixed CAZ (ceftazidime) 4 μg/mL
Procedure, shortened: as §1

[3] = target: T1, VIM-2 metallo β-lactamase (Pseudomonas aeruginosa, UniProt Q9K2N0); experiment: β-lactamase enzyme inhibition, VIM-2; assay type: biochemical; settings: Nitrocefin 100 μM, 486 nm; 15 min at 37° C. preincubation; read-out: IC50 VIM-2 (Class B)
T1 construct: made in house; host or cells: E. coli BL21(DE3)
Procedure, shortened: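 Inhibitor and enzyme sat together 15 min at 37° C before 100 μM nitrocefin (final) was added and 486 nm absorbance read for 10 min. IC50 is the concentration halving initial hydrolysis rate relative to uninhibited wells. Protein came from Q sepharose anion exchange at pH 7.5, repeated to >90% purity.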

[4] = target: T2, p99 AmpC β-lactamase (Enterobacter cloacae, UniProt P05364); experiment: β-lactamase enzyme inhibition, p99 AmpC; assay type: biochemical
T2 construct: made in house; host or cells: E. coli BL21(DE3)
T2 sequence (P05364 21-381): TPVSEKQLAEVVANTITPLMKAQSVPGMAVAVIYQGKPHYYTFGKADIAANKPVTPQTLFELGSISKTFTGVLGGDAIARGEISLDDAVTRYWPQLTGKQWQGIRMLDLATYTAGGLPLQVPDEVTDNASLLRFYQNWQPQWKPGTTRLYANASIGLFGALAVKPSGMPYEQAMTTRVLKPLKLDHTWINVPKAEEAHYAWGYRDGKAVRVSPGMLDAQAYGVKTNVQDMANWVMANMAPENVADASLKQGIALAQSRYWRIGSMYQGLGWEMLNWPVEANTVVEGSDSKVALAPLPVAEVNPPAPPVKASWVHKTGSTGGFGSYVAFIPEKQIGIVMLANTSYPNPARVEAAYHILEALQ
Procedure, shortened: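 Inhibitor and enzyme were incubated 15 min at 37°C first. The enzyme was recombinant p99 AmpC, untagged, from E. coli BL21(DE3), purified by ion-exchange and size-exclusion chromatography.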

[5] = target: T3, KPC-2 β-lactamase (Klebsiella pneumoniae, UniProt Q9F663); experiment: β-lactamase enzyme inhibition, KPC-2; assay type: biochemical
T3 construct: made in house; host or cells: E. coli BL21(DE3)
T3 sequence (Q9F663 25-293, looked up): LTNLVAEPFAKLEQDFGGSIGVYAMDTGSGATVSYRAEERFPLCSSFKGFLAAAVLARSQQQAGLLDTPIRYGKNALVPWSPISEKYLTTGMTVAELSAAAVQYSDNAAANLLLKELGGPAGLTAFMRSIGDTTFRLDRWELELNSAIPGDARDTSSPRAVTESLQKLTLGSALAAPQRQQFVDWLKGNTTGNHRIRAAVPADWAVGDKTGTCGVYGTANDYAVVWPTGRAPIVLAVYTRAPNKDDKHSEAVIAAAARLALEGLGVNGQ
Procedure, shortened: (§2)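 Absorbance-based kinetic read over 10 min after a 15 min, 37° C enzyme–inhibitor preincubation. Substrates differed by target: nitrocefin at 100 μM final (OXA-1, p99 AmpC; 486 nm), imipenem (KPC-2; 300 nm), cefotaxime (SHV-5; 260 nm). Percent inhibition per concentration gave the IC50.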

[6] = system: K. pneumoniae 156319 expressing KPC-3; experiment: broth microdilution MIC, K. pneumoniae KPC-3; assay type: cell-based; settings: Fixed Mero (meropenem) 4 μg/mL
Procedure, shortened: as §1

[7] = system: K. pneumoniae A-1797 expressing KPC-2 and VIM-4; experiment: broth microdilution MIC, K. pneumoniae KPC-2 and VIM-4; assay type: cell-based; settings: Fixed Mero (meropenem) 4 μg/mL
Procedure, shortened: as §1

[8] = target: T4, OXA-1 β-lactamase (Escherichia coli, UniProt P13661); experiment: β-lactamase enzyme inhibition, OXA-1; assay type: biochemical; settings: Nitrocefin 100 μM, 486 nm; 15 min at 37° C. preincubation; read-out: IC50 OXA-1 (Class D)
T4 construct: made in house; host or cells: E. coli BL21(DE3)
T4 sequence (P13661 26-276): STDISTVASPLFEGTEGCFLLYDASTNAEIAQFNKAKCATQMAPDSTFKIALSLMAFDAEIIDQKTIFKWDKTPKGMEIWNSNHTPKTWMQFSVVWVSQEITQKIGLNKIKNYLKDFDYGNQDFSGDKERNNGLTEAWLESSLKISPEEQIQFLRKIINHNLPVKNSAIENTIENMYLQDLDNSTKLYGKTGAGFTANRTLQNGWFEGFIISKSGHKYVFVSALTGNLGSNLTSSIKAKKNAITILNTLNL
Description: For SHV-5, Kpc-2, p99AmpC and OXA-1 β-lactamases, E. coli BL21(DE3) bacterial cells carrying expression plasmids (expressed as native untagged proteins) for the individual β-lactamases were grown in 1 L of Superbroth (Teknova Inc. Hollister, Calif.) supplemented with 100 μg/ml kanamycin selection and 1×5052 (0.5% glycerol, 0.05% glucose and 0.2% α-lactose) at 35° C. for 18-20 hours. Cells were harvested by centrifugation (4,000×g, 4° C., 20 min), resuspended in 50 ml of 10 mM HEPES pH 7.5 ( 1/20 of the initial volume). The cells were lysed by sonication (5 pulses of 45 seconds) at 45 W on ice. The lysates were clarified by centrifugation at 10,000×g for 40 minutes at 4° C. Samples were diluted 5-fold in 50 mM sodium acetate pH 5.0, stored overnight at 4° C., after which they were centrifuged at 10,000×g for 30 minutes to clarify, and filtered through 0.45 μm filters. The samples were loaded onto a 5 ml Capto S sepharose cation exchange column (GE Healthcare) pre-equilibrated with 50 mM sodium acetate pH 5.0. The column was washed with 5 column volumes of 50 mM sodium acetate pH 5.0 to wash out unbound protein and a linear gradient of NaCl (0 to 500 mM) was used to elute the protein (over 16 CV) from the column. Fractions were assayed for […] activity using Centa (Calbiochem, Gibbstown, N.J.) or Nitrocefin (EMD Millipore chemicals, Darmstadt, Germany) as a reporter β-lactamase substrate for activity in the isolated fractions. Active fractions were pooled, concentrated and further purified by gel filtration chromatography on a Superdex 75 prep grade gel filtration column (GE Healthcare, Piscataway, N.J.) pre-equilibrated in 50 mM Hepes pH 7.5, 150 mM NaCl. Active fractions were pooled, concentrated, and quantitated by BCA protein determination (Thermo Scientific, Rockford, Ill.), dialyzed into PBS and frozen at −80° C. in 20% glycerol until use.
An equal volume of diluted enzyme stock was added, and the plates were incubated at 37° C. for 15 min. Nitrocefin was used as substrate for p99 AmpC, VIM-2 and OXA-1 and dispensed into each well at a final concentration of 100 μM. Absorbance at 486 nm was immediately monitored for 10 min using a Biotek Powerwave XS2 microplate spectrophotometer using the GEN5 software package (Biotek Instruments, Winooski Vt.). In an analogous fashion, imipenem was used as substrate for KPC-2 and Cefotaxime was used for SHV-5, while changes in absorbance upon hydrolysis of the β-lactam ring were monitored at 300 nm and 260 nm respectively in UV-transparent 96-well microtiter assay plates. Maximum rates of hydrolysis were compared to those in control wells (without inhibitors), and percentages of enzyme inhibition were calculated for each concentration of inhibitor. The concentration of inhibitor needed to reduce the initial rate of hydrolysis of substrate by 50% (IC50) was calculated as the residual activity of β-lactamase at 486 nm using GraFit version 7 kinetics software package (Erithacus Software, Surrey, UK).
Using the methodology described above, examples of the current invention were evaluated for their ability to inhibit β-lactamase enzymes from all four Ambler classifications (A through D). […] NT=Not tested.

[9] = target: T5, SHV-5 β-lactamase (Klebsiella pneumoniae, UniProt P0A3M1); experiment: β-lactamase enzyme inhibition, SHV-5; assay type: biochemical
T5 construct: made in house; host or cells: E. coli BL21(DE3)
T5 sequence (P0A3M1 22-286): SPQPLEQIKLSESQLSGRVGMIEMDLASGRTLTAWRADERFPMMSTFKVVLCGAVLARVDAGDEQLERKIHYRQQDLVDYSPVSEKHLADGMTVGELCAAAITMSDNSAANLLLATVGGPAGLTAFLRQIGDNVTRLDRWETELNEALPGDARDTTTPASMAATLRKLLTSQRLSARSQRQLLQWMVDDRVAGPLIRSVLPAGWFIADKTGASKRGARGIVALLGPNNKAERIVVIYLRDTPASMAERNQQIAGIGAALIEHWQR
Procedure, shortened: as §2

[10] = imipenem substrate, 300 nm, 15 min at 37° C. preincubation, read-out: IC50 KPC-2 (Class A)

| SMILES | MIC of exemplary compounds in presence of fixed β-lactams, E. coli ESBL4 CTX-M-15 [1] | MIC of exemplary compounds in presence of fixed β-lactams, E. cl. 144200 p99 AmpC [2] | IC50 [3] [nM] | IC50 [4] [nM] | IC50 [5, 10] [nM] | MIC of exemplary compounds in presence of fixed β-lactams, K.P. 156319 KPC-3 [6] | MIC of exemplary compounds in presence of fixed β-lactams, K.P. A-1797 KPC-2 VIM-4 [7] | IC50 [8] [nM] | IC50 [9] [nM] | IC50 [5] [nM] |
| --- | --- | --- | --- | --- | --- | --- | --- | --- | --- | --- |
| N#CCCC(=O)N[C@H]1Cc2cc(F)c(F)c(C(=O)O)c2OB1O [Example 49, (R)-3-(3-Cyano-propionylamino)-6,7-difluoro-2-hydroxy-3,4-dihydro-2H-benzo[e][1,2]oxaborinine-8-carboxylic acid] | C (C represents the MIC in the presence of ≤4 g/mL of a β-lactamase inhibitor) | C (C represents the MIC in the presence of ≤4 g/mL of a β-lactamase inhibitor) | 1000 to 10000 | 100 to 1000 | < 100 | C (C represents the MIC in the presence of ≤4 g/mL of a β-lactamase inhibitor) | B (B represents the MIC in the presence of between 8 and 32 g/mL of a β-lactamase inhibitor) | < 100 | < 100 |  |
| N#CCCC(=O)N[C@H]1Cc2ccc(F)c(C(=O)O)c2OB1O [Example 46, (R)-3-(3-Cyano-propionylamino)-7-fluoro-2-hydroxy-3,4-dihydro-2H-benzo[e][1,2]oxaborinine-8-carboxylicacid] | C (C represents the MIC in the presence of ≤4 g/mL of a β-lactamase inhibitor) | C (C represents the MIC in the presence of ≤4 g/mL of a β-lactamase inhibitor) | 100 to 1000 | < 100 | < 100 | C (C represents the MIC in the presence of ≤4 g/mL of a β-lactamase inhibitor) | B (B represents the MIC in the presence of between 8 and 32 g/mL of a β-lactamase inhibitor) | < 100 | < 100 |  |
| O=C(CCC(=O)c1ccccc1)N[C@H]1Cc2cccc(C(=O)O)c2OB1O [Example 42, (R)-2-Hydroxy-3-(4-oxo-4-phenyl-butyrylamino)-3,4-dihydro-2H-benzo[e][1,2]oxaborinine-8-carboxylic acid] | C (C represents the MIC in the presence of ≤4 g/mL of a β-lactamase inhibitor) | C (C represents the MIC in the presence of ≤4 g/mL of a β-lactamase inhibitor) | 100 to 1000 | < 100 | < 100 | B (B represents the MIC in the presence of between 8 and 32 g/mL of a β-lactamase inhibitor) | B (B represents the MIC in the presence of between 8 and 32 g/mL of a β-lactamase inhibitor) | < 100 | < 100 |  |
| CC(=O)/C=C/C(=O)N[C@H]1Cc2cccc(C(=O)O)c2OB1O [Example 39, (R)-2-Hydroxy-3-(4-oxo-pent-2-enoylamino)-3,4-dihydro-2H-benzo[e][1,2]oxaborinine-8-carboxylic acid] | C (C represents the MIC in the presence of ≤4 g/mL of a β-lactamase inhibitor) | C (C represents the MIC in the presence of ≤4 g/mL of a β-lactamase inhibitor) | 100 to 1000 | < 100 | < 100 | B (B represents the MIC in the presence of between 8 and 32 g/mL of a β-lactamase inhibitor) | B (B represents the MIC in the presence of between 8 and 32 g/mL of a β-lactamase inhibitor) | < 100 | < 100 |  |
| NS(=O)(=O)CCC(=O)N[C@H]1Cc2cccc(C(=O)O)c2OB1O [Example 35, (R)-2-Hydroxy-3-(3-sulfamoyl-propionylamino)-3,4-dihydro-2H-benzo[e][1,2]oxaborinin-8-carboxylic acid] | C (C represents the MIC in the presence of ≤4 g/mL of a β-lactamase inhibitor) | C (C represents the MIC in the presence of ≤4 g/mL of a β-lactamase inhibitor) | 100 to 1000 | < 100 |  | C (C represents the MIC in the presence of ≤4 g/mL of a β-lactamase inhibitor) | C (C represents the MIC in the presence of ≤4 g/mL of a β-lactamase inhibitor) | < 100 | < 100 | < 100 |
| CS(=O)(=O)NCCC(=O)N[C@H]1Cc2cc(F)c(F)c(C(=O)O)c2OB1O [Example 51, (R)-6,7-Difluoro-2-hydroxy-3-(3-methanesulfonylamino-propionylamino)-3,4-dihydro-2H-benzo[e][1,2]oxaborinine-8-carboxylic acid] | C (C represents the MIC in the presence of ≤4 g/mL of a β-lactamase inhibitor) | C (C represents the MIC in the presence of ≤4 g/mL of a β-lactamase inhibitor) | 1000 to 10000 | < 100 | < 100 | C (C represents the MIC in the presence of ≤4 g/mL of a β-lactamase inhibitor) | B (B represents the MIC in the presence of between 8 and 32 g/mL of a β-lactamase inhibitor) | < 100 | < 100 |  |
| O=C(CCC(=O)C(F)(F)F)N[C@H]1Cc2cccc(C(=O)O)c2OB1O [Example 38, (R)-2-Hydroxy-3-(5,5,5-trifluoro-4-oxo-pentanoylamino)-3,4-dihydro-2H-benzo[e][1,2]oxaborinine-8-carboxylicacid] | B (B represents the MIC in the presence of between 8 and 32 g/mL of a β-lactamase inhibitor) | C (C represents the MIC in the presence of ≤4 g/mL of a β-lactamase inhibitor) | 1000 to 10000 | < 100 | 100 to 1000 | B (B represents the MIC in the presence of between 8 and 32 g/mL of a β-lactamase inhibitor) | B (B represents the MIC in the presence of between 8 and 32 g/mL of a β-lactamase inhibitor) | < 100 | < 100 |  |
